Experimental data published in patent publication US20150119825A1, “OPTIMIZING UNGUAL TREATMENT BY QUANTITATIVE AUTORADIOGRAPHY” (GALDERMA RESEARCH & DEVELOPMENT, priority 2012, published 2015).
Values joined by “and” are separate entries in the source; they are usually repeats but may differ in a detail not shown here. Equal values may be shown once. “Also recorded” adds a separate entry of the source. Where a name gives a salt, the structure may show the parent alone. Each block holds one compound with its values, some of them ahead of it.

Experiments:
[1] = In vitro diffusion of [^14C]-Terbinafine at the nail bed of drilled human nails, quantitative whole body autoradiography (QWBA); assay type: in vitro ADME; settings: for diffusion of radioactivity between the holes: 2 mm and 4 mm spaced holes
Description: Four frozen human cadaver fingertips with nails were used. Each fingernail contained two series of three holes, one set at 2 mm apart and the other set at 4 mm apart.
The samples were placed in a Transwell plate containing 3 milliLiters (mL) of culture medium. Three of the nails received an application of the radiolabeled test item during one hour; one received an application of a non-radiolabeled test item. A finite dose (5 microLiters (μL)) of formulation was applied on the nail surface. Incubation was conducted for 1 hour at 37° C., 5% CO2 and saturated hygrometry. At the end of the incubation, excess of formulation was removed from the nail surface.
Each sample was frozen onto a support using adapted QWBA procedures. Sections were then taken through each fingernail onto tape and were analyzed using QWBA methods to determine the diffusion of radioactivity at the nail bed level from each site of administration. A 3-dimensional graph of the concentration of radioactivity was then created to visualize the diffusion through the nail matrix.
In vitro diffusion of [^14C]-Terbinafine on nail beds was studied on drilled human hand nails. Four samples were used through the study and were drilled as follows: • On each sample: 3 holes of 0.6 mm diameter, with 2 mm distance between each hole and 3 holes of 0.6 mm diameter, with 4 mm distance between each hole • 3 samples were treated with 10% [^14C]-Terbinafine in amphoteric solution One sample was treated with placebo • Treatment duration: 1 hour • 5 μL of test item were applied on each nail • Incubation at 37° C., 5% CO2 and saturated hygrometry during 1 hour • At the end of the incubation period, the excess of test item was removed and the samples were stored at −80° C. before processing for autoradiography analysis.
(§1) Three of the nails received an application of the radiolabeled test item, whilst the other nail received an application of the unlabelled test item as follows: • Samples A, B and C (Treated samples): 5 μL of the formulation containing 10% [^14C]-Terbinafine were applied on the surface of each of the nail samples. • Sample D (Control sample): 5 μL of the formulation containing 10% Terbinafine were applied on the surface of the nail sample.
(§2) The culture plate containing the nail samples was placed in a culture incubator kept at 37° C., 5% CO2 and saturated hygrometry. The duration of the nail treatment was 1 hour.
At the end of the treatment period, the excess of the formulation remaining on the nail was wiped off using a dried cotton swab and five successive cotton swabs wetted with absolute ethanol. These cotton swabs were discarded. The nail samples were then stored at −80° C., and shipped frozen for analysis by autoradiography.
The samples (four human fingernails) were received deeply frozen on solid CO2 and immediately transferred to storage in a freezer set to maintain a temperature of −80° C. A supporting block was prepared to support each sample during sectioning. Specifically, a mould was filled with 2% carboxymethylcellulose solution and frozen in a mixture of dry ice and hexane. The frozen finger was fixed in a horizontal position on a cork disc using a cryo-matrix and the disc was then fixed to the carboxymethylcellulose block with a further cryo-matrix. The finger was embedded so that the nail was facing to the side and to ensure that each series of holes was as horizontal as possible (dependant on the alignment of the drilled holes). A further cryomatrix was added around each finger to provide additional support during sectioning. The frozen blocks were stored in a freezer set to maintain a temperature of −20° C. prior to and following sectioning.
Each nail was sectioned through until immediately adjacent to the uppermost hole in the series. Horizontal sections (approximately 30 μm thick) were then taken through each fingernail onto adhesive tape. […]

[2] = Radioactivity level in the culture medium (receiver chamber) at the end of the treatment period, liquid scintillation counting; assay type: in vitro ADME, human; settings: for radioactivity in culture medium, mean / radioactivity in culture medium, whole receiver chamber: 1 hour treatment; for radioactivity in culture medium, single counts: 5 μL of 10% formulation on drilled nail, 1 hour, 37° C., triplicate counts, hydrochloride; for Applied dose (%) found in culture medium: applied dose 1106175 dpm
Method: Each nail sample was then placed on a cell culture insert. Each insert was introduced into a receiver chamber of a 6-well culture plate. The receiver chamber was filled with 3 mL HHBSS containing antibiotics (2% penicilline-streptomycine).
as §1, §2
In order to check the specificity of the incubation system (no radioactive contamination due to leakage of applied formulation through the insert), the radioactivity level was measured in the culture medium at the end of the treatment period. Each receiver chamber medium was controlled in triplicate by liquid scintillation counting as follows: 100 μL of culture medium was directly counted by liquid scintillation counting using 10 mL of HIONIC FLUOR available from Perkin Elmer. The results presented in the table below show a very low radioactivity level in culture medium of sample A and sample C. The radioactivity level only represented 1.6% of the applied dose in sample A and 0.1% of the applied dose in sample C. These radioactivity levels were considered negligible and could not compromise the results of the study.

Compound: CN(C/C=C/C#CC(C)(C)C)Cc1cccc2ccccc12 [Terbinafine]
- localization of diffusion (plots of FIGS. 4, 6, 8, 10, 12, 14) ([1]; Nails A to C, 2 mm and 4 mm hole sets): particularly localized to the holes in the nail

- radioactive signal on the surface of nail plates ([1]; overall conclusion): marked radioactive signal
- radioactivity in culture medium, mean ([2]; Mean sample A): 575.7 dpm/100 μL
- radioactivity in culture medium, whole receiver chamber ([2]; Mean sample A): 17270 dpm/3 mL
- radioactivity in culture medium, whole receiver chamber ([2]; Mean sample B): BLQ
- radioactivity in culture medium, mean ([2]; Mean sample B, LOQ 54 dpm): 46.3 dpm/100 μL
- radioactivity in culture medium, whole receiver chamber ([2]; Mean sample C): 1640 dpm/3 mL
- radioactivity in culture medium, mean ([2]; Mean sample C, LOQ 54 dpm): 54.7 dpm/100 μL
- Applied dose (%) found in culture medium ([2]; Sample A): 1.6%
- Applied dose (%) found in culture medium ([2]; Sample B): 0%
- Applied dose (%) found in culture medium ([2]; Sample C): 0.1%
Compound: CN(C/C=C/C#CC(C)(C)C)Cc1cccc2ccccc12 [[^14C]-Terbinafine, Terbinafine hydrochloride]
- diffusion of radioactivity between the holes ([1]; Nail A, 1 hour): little diffusion of radioactivity between the holes
- concentrations of radioactivity between the holes ([1]; Nail A, 4 mm spacing, 1 hour): decrease to background levels between the holes
- diffusion of radioactivity between the holes ([1]; Nail B, 1 hour): little diffusion of radioactivity between the holes
- concentrations of radioactivity between the holes ([1]; Nail B, 4 mm spacing, 1 hour): decrease to background levels between the holes
- diffusion of radioactivity between the holes ([1]; Nail C, 1 hour, holes did not receive a full application): little diffusion of radioactivity between the holes
- concentrations of radioactivity between the holes ([1]; Nail C, 4 mm spacing, 1 hour): decrease to background levels between the holes
- diffusion at the nail bed level around the holes ([1]; overall conclusion): diffusion of the radiolabeled drug at the nail bed level around the holes
- diffusion of radioactivity between the holes, 4 mm versus 2 mm spacing ([1]; overall conclusion, Nails A to C, hydrochloride): little diffusion of radioactivity between the 4 mm spaced holes compared to the 2 mm spaced holes; also recorded: little diffusion of radioactivity between the 4 mm spacing holes compared to the 2 mm spacing holes
- concentrations of radioactivity between the holes ([1]; overall conclusion, 4 mm spaced holes, hydrochloride): decreased to background radiation levels between the holes; also recorded: decrease to background levels between the holes
- radioactivity in culture medium, single counts ([2]; Sample A): 494 dpm/100 μL and 621 dpm/100 μL and 612 dpm/100 μL
- radioactivity in culture medium, single counts ([2]; Sample B): 48 dpm/100 μL and 49 dpm/100 μL and 42 dpm/100 μL
- radioactivity in culture medium, single counts ([2]; Sample C): 49 dpm/100 μL and 52 dpm/100 μL and 63 dpm/100 μL
